Measurements reported in US12240811B2, “N-heterocyclic five-membered ring-containing capsid protein assembly inhibitor, pharmaceutical composition and uses thereof” (CHIA TAI TIANQING PHARMACEUTICAL GROUP CO., LTD., priority 2019, dated 2025).
pIC50: −log10 of the molar value.

Legend:
[1] = Stability of liver microsomes in vitro, human; assay type: in vitro ADME
Description: (§1) 300 μL of a final incubation system contains 30 μL of liver microsomes (protein concentration: 0.15 mg/mL, Corning), 30 μL NADPH+MgCl2, 3 μL substrate (formulated with acetonitrile), and 237 μL PBS buffer. Duplicate incubation systems of 0.3 mL each were formulated for each species. A total volume of 270 μL of a uniformly mixed solution of the substrate and the enzyme was formulated in each tube, the solution and NADPH were pre-incubated at 37° C. for 5 minutes, respectively. Then 30 μL of the mixed solution of NADPH+MgCl2 was added for reaction. 50 μL of the reaction solution was taken out at 0, 10, 30, and 60 mins, and the reaction was terminated with 300 μL of ice acetonitrile containing an internal standard.
(§2) Sample pre-treatment: To 50 μL of the incubated sample was added 300 μL of ice acetonitrile containing diazepam as an internal standard and then precipitated. After vortexing for 5 minutes, the sample was centrifugated (12000 rpm, 4° C.) for 10 minutes. 75 μL of the supernatant was pipetted into a 96-well plate, and then diluted with 75 μL ultrapure water and mixed uniformly. 0.5 μL of the resulting solution was injected and analyzed by LC-MS/MS.

[2] = biological target: CYP2C19 (Homo sapiens (Human), UniProt P33261); assay: CYP450 enzyme inhibition study, CYP2C19; assay type: in vitro ADME
Description: (§3) 500 μL of a final incubation system contains 50 μL of human liver microsomes (protein concentration: 0.2 mg/mL, Corning), 1 μL of mixed CYP450 specific substrates (CYP1A2, CYP 2B6, CYP 2C9, CYP2C19, CYP 2D6, and CYP 3A4), 398 μL PBS buffer (pH7.4), 1 μL specific positive inhibitor (positive control group) or the test compound (formulated with acetonitrile), and 50 μL NADPH+MgCl2. Duplicate incubation systems of 0.5 mL each were formulated for each CYP450 subtype. A total volume of 450 μL of a uniformly mixed solution of the substrate and the enzyme was formulated in each tube, and the solution and NADPH were pre-incubated at 37° C. for 5 minutes, respectively. Then 50 μL of the mixed solution of NADPH+MgCl2 was added for reaction. 50 μL of the reaction solution was taken out at 30 minutes, and the reaction was terminated with 300 μL of ice acetonitrile containing an internal standard. In addition, two control groups of 500 μL each without NADPH were prepared in parallel as a negative control group.
(§4) Sample pre-treatment: To 50 μL of the incubated sample was added 300 μL of ice acetonitrile containing an internal standard, and then precipitated. After vortexing for 5 minutes, the sample was centrifugated (12000 rpm, 4° C.) for 10 minutes. 75 μL of the supernatant was pipetted, and 75 μL of ultrapure water was added thereto for dilution and mixed uniformly. […]

[3] = In vitro cytotoxicity (CCK-8); assay type: cell-based; settings: human, HepG2.2.15 cells
Description: A bottle of HepG2.2.15 cells (Wuhan Institute of Virology) in good exponential growth state was taken, washed once by adding 5 mL PBS, and then thereto was added 2 mL trypsin. The sample was digested in a cell culture incubator, and taken out from time to time and observed under a microscope. When the cells just fell off, 1 mL trypsin was discarded. The residual liquid was placed in a cell culture incubator at 37° C. and digested for 8-15 min. The cells were taken out and observed under a microscope (whether the cells were individually round and there was no adhesion between the cells). 5 mL MEM medium was added for cell resuspension. The cells were then subjected to cell counting with a cell counter, diluted with a complete medium, and adjusted to a cell density of 2*10^5 cells/mL. Then the cells were seeded at 100 μL/well in a 96-well plate with a multi-channel pipette (the 96-well plate was coated with 50 μg/mL Collagen I solution in advance), and cultured in a constant temperature CO2 incubator for 24 h. The cells were treated by drug administration, and fresh medium containing the compound was used to replace the spent medium every 3 days. […] After 1 to 2 hours, the absorbance was detected with microplate reader at 450 nm, and the inhibition rate and the CC50 were calculated.

[4] = Stability of liver microsomes in vitro, mouse; assay type: in vitro ADME
Description: as §1, §2

[5] = biological target: CYP 2C9 (Homo sapiens (Human), UniProt P11712); assay: CYP450 enzyme inhibition study, CYP 2C9; assay type: in vitro ADME; settings: human liver microsomes; read-out: Subtypes IC50 2C9
Description: as §3, §4

[6] = Plasma protein binding assay, rat plasma; assay type: in vitro ADME
Description: (§5) Formulation of plasma sample: 495 μL of blank plasmas of the corresponding species (mouse, rat, dog, monkey, and human) were drawn respectively, and thereto was added 5 μL of the corresponding test compound solution or positive control to give plasma sample solutions having a plasma drug concentration of the compound of 1 μM, and 10 μM, respectively (formulated with acetonitrile).
(§6) The pre-treated dialysis membrane was placed in a high-throughput equilibrium dialysis device, and 100 μL of the plasma sample solution and PBS buffer solution were drawn and added respectively to both sides of the dialysis membrane (sample side and buffer side) (n=3). After the equilibration device was sealed with a film, it was incubated at 37° C. overnight (100 rpm). After dialysis equilibrium was reached, 50 μL samples were drawn from the sample side and the buffer side, respectively, and the reaction was terminated by adding ice acetonitrile containing an internal standard.
as §4, with “plasma-side” for “incubated”, “450” for “300”, “uniformly. 1 μL of the resulting solution was injected for analysis.” for “uniformly.”

[7] = Plasma protein binding assay, mouse plasma; assay type: in vitro ADME
Description: as §5, §6
as §4, with “plasma-side” for “incubated”, “450” for “300”, “uniformly. 1 μL of the resulting solution was injected for analysis.” for “uniformly.”

CYP2C19, sequence (P33261 whole entry): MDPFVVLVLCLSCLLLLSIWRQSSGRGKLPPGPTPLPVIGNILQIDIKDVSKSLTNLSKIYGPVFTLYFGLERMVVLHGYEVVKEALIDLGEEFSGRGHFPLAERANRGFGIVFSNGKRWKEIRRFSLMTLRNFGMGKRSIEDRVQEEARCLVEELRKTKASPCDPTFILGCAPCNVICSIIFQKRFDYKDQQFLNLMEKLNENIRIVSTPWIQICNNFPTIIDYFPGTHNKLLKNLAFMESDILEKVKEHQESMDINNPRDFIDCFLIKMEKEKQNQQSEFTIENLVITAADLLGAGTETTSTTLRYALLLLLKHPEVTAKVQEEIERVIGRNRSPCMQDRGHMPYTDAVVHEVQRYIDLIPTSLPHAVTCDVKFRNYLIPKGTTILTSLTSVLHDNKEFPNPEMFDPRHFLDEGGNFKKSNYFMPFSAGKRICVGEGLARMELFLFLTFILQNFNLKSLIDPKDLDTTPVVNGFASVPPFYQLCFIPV
CYP 2C9, sequence (P11712 whole entry): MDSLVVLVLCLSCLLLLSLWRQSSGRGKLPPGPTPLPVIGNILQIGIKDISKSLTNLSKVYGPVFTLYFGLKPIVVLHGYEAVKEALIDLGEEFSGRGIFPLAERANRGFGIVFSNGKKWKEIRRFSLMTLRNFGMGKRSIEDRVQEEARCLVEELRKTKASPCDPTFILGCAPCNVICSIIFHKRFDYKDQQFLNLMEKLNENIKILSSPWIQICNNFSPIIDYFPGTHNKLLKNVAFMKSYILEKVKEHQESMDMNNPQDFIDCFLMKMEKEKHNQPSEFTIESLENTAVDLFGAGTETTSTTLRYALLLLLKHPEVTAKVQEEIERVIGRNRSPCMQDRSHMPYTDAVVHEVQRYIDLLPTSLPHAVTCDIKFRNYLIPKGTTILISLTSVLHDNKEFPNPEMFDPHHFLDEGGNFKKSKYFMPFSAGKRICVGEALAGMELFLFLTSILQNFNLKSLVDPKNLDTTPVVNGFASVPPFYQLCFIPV

For `Cc1[nH]c(C(=O)C(=O)N[C@@H](C)C(F)(F)F)c(C)c1C(=O)Nc1ccc(F)c(C#N)c1` [Example 1, (S)—N-(3-cyano-4-fluorophenyl)-2,4-dimethyl-5-(2-oxo-2-((1,1,1-trifluoroprop-2-yl)amino)acetyl)-1H-pyrrole-3-carboxamide], the “Remaining (%) of human liver microsomes at 60 min” value [1] was 99%, the pIC50 [2] was 4.70 and the CC50 at 6 days [3] was greater than 100 µM. The “Remaining (%) of mouse liver microsomes at 60 min” value [4] was 96%, the pIC50 [5] was less than 3.70 and the “Binding rate (%) Rat” value ([6]; 1 μM) was 95.0%. The “Binding rate (%) Rat” value ([6]; 10 μM) was 95.3%, the “Binding rate (%) Mouse” value ([7]; 1 μM) was 85.4% and the “Binding rate (%) Mouse” value ([7]; 10 μM) was 85.5%.
